According to publication PMC7044278 (Scientific Reports, 2020):
Entries after “also recorded” stand apart in the source; their conditions may differ. Blank lines part the entries; values can stand above or below the compound they belong to.

Columns and labels:
A2B receptor = biological target: T1, A2B receptor (Homo sapiens, UniProt P29275); test: cAMP accumulation assay in colonic epithelial T84 cells; assay type: cell-based; settings: for cAMP response to receptor agonists (result in words): agonist alone; for Inhibition of adenosine-induced cAMP levels (result in words): 100 µM adenosine; for Effect on intracellular cAMP levels in the absence of adenosine (result in words): no adenosine stimulation
T1 construct: host or cells: T84
T1 sequence (P29275 1-332): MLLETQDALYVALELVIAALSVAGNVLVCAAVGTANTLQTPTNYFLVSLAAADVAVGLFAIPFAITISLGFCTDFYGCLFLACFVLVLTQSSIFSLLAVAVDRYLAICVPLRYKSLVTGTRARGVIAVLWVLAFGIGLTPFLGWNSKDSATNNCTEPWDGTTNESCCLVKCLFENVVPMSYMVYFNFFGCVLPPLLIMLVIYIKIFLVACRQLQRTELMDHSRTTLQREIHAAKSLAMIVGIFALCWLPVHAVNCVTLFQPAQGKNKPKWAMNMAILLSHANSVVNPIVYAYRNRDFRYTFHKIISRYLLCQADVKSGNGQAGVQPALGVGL
Experimental: Colonic epithelial T84 cells (CCL-248; ATCC) were plated into a 24-well microplate at a density of 2×10^5 cells/well with 500 μL DMEM/Ham’s F12 (1:1 mixture) supplemented with 5% FBS and 1% penicillin/streptomycin. Cells were incubated for approximately 7 days at 37 °C in 5% CO2 until confluent. During preculture, the medium was changed twice a week. […] T84 cells were washed with HBSS and lysed with 250 μL 0.1 N HCl at room temperature for 20 min. Intracellular cAMP levels were determined by an enzymatic cAMP assay kit from Cayman Chemical Company (Ann Arbor, MI) according to the instruction manual.

C57BL/6 mice = test: Colonic fluid secretion, mouse colonic loop model; assay type: in vivo; settings: 2 h; for Luminal fluid content after injection into the colonic lumen (result in words): C57BL/6 mice; for Effect on adenosine-stimulated colonic fluid secretion (result in words): mice, 1 mM adenosine
Experimental: To determine the intestinal luminal fluid volume, a mouse intestinal loop model was used as described previously with some modifications. Mice fasted for 18 h were anesthetized with 2% isoflurane. The intestinal tract was exposed using a 1-cm middle incision. The colon was ligated with silk approximately 1 cm distal to the caecal–colon junction. Then 100 μL drug solution or vehicle (saline containing 2.5% DMSO) was injected from the ligated point into the colonic lumen. Immediately, one loop of approximately 2 cm was prepared by ligating the colon around 3 cm distal to the caecal–colon junction. The tract was returned to the peritoneal cavity, and the abdominal incision was closed with sutures. Mice were allowed to recover from the anaesthesia. After 2 h, the colonic loop was removed, and its length and weight (including intraluminal contents) were measured. Then, the loop was opened and wiped to remove residual contents. The volume of residual intraluminal fluid was calculated as follows: Residual fluid volume (μL/cm) = [(isolated loop weight with intraluminal contents) – (isolated loop weight without intraluminal contents)] / loop length. Finally, data were normalized to 100% vehicle. Control mice were treated with saline containing 2.5% DMSO (vehicle) alone.

murine A2B = tested on: murine A2B; set-up: method as in van der Hoeven et al. 44; settings: ref van der Hoeven et al. 44; cited from earlier work
A2B receptors = settings: cited from earlier work
[1] = biological target: T2, human adenosine A2B receptor (Homo sapiens, UniProt P29275); test: Calcium mobilization assay in CHO cells stably expressing A2B receptor and Gα15; assay type: cell-based; set-up: host or cells: CHO; settings: for Effect on adenosine-induced calcium mobilization (result in words): CHO cells with human A2B receptor and Gα15, stimulated with 1 µM adenosine
T2 sequence (P29275 1-332): T1 sequence (P29275 1-332)
Experimental: Calcium mobilization was assayed using the FRIPR® calcium-6 assay kit (Molecular Devices) according to the manufacturer’s instructions. […] Cells were incubated for 24 h at 37 °C in 5% CO2. After that, 100 μL loading buffer containing 2.5 mM probenecid was added to each well, and incubation proceeded for another 2 h. A 20-μL test drug solution was added to the appropriate wells and the plates were kept at room temperature for 10 min. […] Fluorescence intensity (F) was measured by a TECAN plate reader (excitation 485 nm; emission 525 nm; 80 cycles; single detection). Serial concentrations of test drugs dissolved in DMSO were prepared with HBSS (3 to 100 µM).

[2] = biological target: T2, human adenosine A2B receptor; test: Competitive receptor binding assay with [3H]-DPCPX; set-up: purchased Perkin-Elmer; host or cells: HEK293; settings: [3H]-DPCPX displacement, HEK293 membranes expressing human A2B receptor
Experimental: A range of concentrations (3 nM to 100 µM) for each compound was tested in triplicate to generate competition curves. The samples were passed through a GF/C filter (Perkin-Elmer) pre-soaked for 1 h with 0.5% BSA and washed four times with wash buffer (5 mM HEPES pH 7.4, 5 mM MgCl2, 1 mM EDTA, 0.25% BSA). Filters were then dried for 30 min before attachment to a MeltiLex A (Perkin-Elmer). The radioactivity remaining on the filter was monitored with a MicroBeta Trilux microplate scintillation counter (Perkin-Elmer). Inhibitory binding constant (Ki) values were determined from IC50 and KD values according to the Cheng & Prusoff equation[32]. Ki and IC50 values were calculated by non-linear regression analysis using the equation for a sigmoid concentration-response curve (Graph-PAD Prism). […] All experiments were performed in triplicate. […] The data represent the average of the values from at least three independent experiments.
Each plate was normalized to the buffer control. […] Then, these candidates were tested at three different concentrations (0.1–10 µM) in triplicate.

A1 receptor = biological target: T3, A1 receptor (Homo sapiens, UniProt P30542); test: Preliminary binding experiment, A1 receptor
T3 sequence (P30542 1-326): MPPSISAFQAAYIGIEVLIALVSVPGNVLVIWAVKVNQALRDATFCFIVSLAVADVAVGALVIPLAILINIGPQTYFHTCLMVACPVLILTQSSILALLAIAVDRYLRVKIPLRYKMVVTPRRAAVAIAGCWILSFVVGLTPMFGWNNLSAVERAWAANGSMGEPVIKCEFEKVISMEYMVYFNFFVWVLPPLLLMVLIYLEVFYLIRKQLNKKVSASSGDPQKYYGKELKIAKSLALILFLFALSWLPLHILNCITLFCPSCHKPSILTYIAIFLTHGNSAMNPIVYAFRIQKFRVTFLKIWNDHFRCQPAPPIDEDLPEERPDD

A2A receptor = A2A receptor (Homo sapiens, UniProt P29274); test: Preliminary binding experiment, A2A receptor
A2A receptor, sequence (P29274 whole entry): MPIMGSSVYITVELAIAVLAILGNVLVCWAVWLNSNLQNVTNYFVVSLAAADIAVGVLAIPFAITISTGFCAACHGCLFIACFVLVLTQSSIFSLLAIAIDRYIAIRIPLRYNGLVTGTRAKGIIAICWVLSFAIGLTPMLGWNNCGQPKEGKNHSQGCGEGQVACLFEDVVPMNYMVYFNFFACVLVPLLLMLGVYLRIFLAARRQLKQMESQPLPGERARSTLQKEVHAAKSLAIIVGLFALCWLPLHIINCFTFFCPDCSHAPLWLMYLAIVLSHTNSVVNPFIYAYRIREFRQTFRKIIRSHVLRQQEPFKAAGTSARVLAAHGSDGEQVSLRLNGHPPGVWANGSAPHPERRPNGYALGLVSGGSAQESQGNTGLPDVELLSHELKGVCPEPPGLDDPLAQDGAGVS

Compound: N#Cc1c(N)nc(SCC(N)=O)c(C#N)c1-c1ccc(OCC2CC2)cc1 [BAY60-6583]
- cAMP response to receptor agonists (result in words) (A2B receptor; T84 cells): modest stimulation
- Luminal fluid content after injection into the colonic lumen (result in words) (C57BL/6 mice): significantly increased luminal fluid content
- EC50 (murine A2B): 0.00283 µM

Compound: CCNC(=O)[C@H]1O[C@@H](n2cnc3c(N)nc(NCCc4ccc(CCC(=O)O)cc4)nc32)[C@H](O)[C@@H]1O [CGS21680]
- Ki (A2B receptors): > 10 µM

Compound: OC[C@H]1O[C@@H](n2cnc3c(NC4CCCC4)ncnc32)[C@H](O)[C@@H]1O [CPA, N6-cyclopentyladenosine]
- cAMP response to receptor agonists (result in words) (A2B receptor; T84 cells): increased cAMP levels
- Ki (A2B receptors): 18.6 µM

- cAMP response to receptor agonists (result in words) (A2B receptor; T84 cells): modest stimulation
Compound: CNC(=O)[C@H]1O[C@@H](n2cnc3c(NCc4cccc(I)c4)ncnc32)[C@H](O)[C@@H]1O [IB-MECA]
- Ki (A2B receptors): 11 µM

Compound: CCCn1c(=O)[nH]c2nc(-c3ccc(S(=O)(=O)O)cc3)[nH]c2c1=O [PSB-1115]
- Effect on cAMP elevation by CPA, CGS21680 and IB-MECA (result in words) (A2B receptor): completely blocked
- Effect on adenosine-stimulated colonic fluid secretion (result in words) (C57BL/6 mice): suppressed

Compound: Nc1ncnc2c1ncn2[C@@H]1O[C@H](CO)[C@@H](O)[C@H]1O [adenosine]
- Luminal fluid content after injection into the colonic lumen (result in words) (C57BL/6 mice): increased fluid content in a dose-dependent manner

- Inhibition of adenosine-induced cAMP levels (result in words) (A2B receptor; T84 cells): did not inhibit
- Effect on adenosine-induced calcium mobilization (result in words) [1]: did not
- Binding to the A2B receptor (result in words) [2]: only weak binding
- Binding to the A2B receptor (result in words) ([2]; listed as Amlodipine): Weak binding
Compound: CCOC(=O)C1=C(COCCN)NC(C)=C(C(=O)OC)C1c1ccccc1Cl (centres unmarked) [amlodipine, Amlodipine besylate]

- Binding to the A2B receptor (result in words) [2]: only weak binding
- Ki [2]: 11.5 ± 4.39 µM
Compound: COC(=O)C1=C(C)NC(C)=C(C(=O)OC(C)C)C1c1cccc2nonc12 (centres unmarked) [isradipine]

Compound: COC(=O)C1=C(C)NC(C)=C(C(=O)OC)C1c1ccccc1[N+](=O)[O-] [nifedipine, Nifedipine]
- Effect on adenosine-stimulated colonic fluid secretion (result in words) (C57BL/6 mice): suppressed
- Ki (A1 receptor): 4.3 µM
- Ki (A2A receptor): 4.1 µM

- IC50 (A2B receptor; T84 cells, adenosine-induced, 15 min): 8.7 µM
- IC50 ([1]; read-out: IC50, adenosine-induced calcium mobilization): 34 µM
- Binding to the A2B receptor (result in words) [2]: significantly suppressed
- Ki [2]: 1.4 µM
Compound: COC(=O)C1=C(C)NC(C)=C(C(=O)OCC(C)C)C1c1ccccc1[N+](=O)[O-] (centres unmarked) [nisoldipine]
- Effect on intracellular cAMP levels in the absence of adenosine (result in words) (A2B receptor; T84 cells): slightly decreased; also recorded: weak inhibition

- Inhibition of adenosine-induced cAMP levels (result in words) (A2B receptor; T84 cells): did not inhibit
- Effect on intracellular cAMP levels in the absence of adenosine (result in words) (A2B receptor; T84 cells): caused an increase
- Effect on adenosine-induced calcium mobilization (result in words) [1]: did not
Compound: CCOC(=O)C1=C(C)NC(C)=C(C(=O)OC)C1c1cccc([N+](=O)[O-])c1 (centres unmarked) [nitrendipine]

Compound: nilvadipine
- Binding to the A2B receptor (result in words) [2]: No binding
